Source: patent US8569267B2, “Tetracyclic tetrahydrofuran derivatives containing cyclic amine side chain” (Janssen Pharmaceutica, NV, priority 2005, dated 2013)

Key:
[1] = molecular target: T1, human Dopamine D2L receptor (Homo sapiens, UniProt P14416); experiment: In vitro binding affinity for human D2L receptor ([3H]Spiperone binding); conditions: human D2L receptor-transfected CHO cell membranes; for IC50: read-out: D2L pIC50 (converted)
T1 construct: expressed in transfected cells; host or cells: CHO cells
Procedure, shortened: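 Competition curves were expressed as percent specific binding, measured by scintillation counting after filtration onto GF/B filters and ice-cold Tris washes. Test compounds competed with [3H]Spiperone, added from a 2 nmol/L dilution, for 30 min at 37° C on transfected CHO membranes in pH 7.7 Tris-HCl salt buffer. Butaclamol at 10^−6 mol/l final marked non-specific binding.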

[2] = molecular target: T2, human cloned 5-HT2C receptor, expressed in CHO cells (Homo sapiens, UniProt P28335); experiment: In vitro binding affinity for 5-HT2C receptor ([3H]mesulergine radioligand binding); conditions: human cloned 5-HT2C receptor; for IC50: read-out: 5-HT2C pIC50 (converted)
T2 construct: expressed in transfected cells; host or cells: CHO cells
T2 sequence (P28335 33-458): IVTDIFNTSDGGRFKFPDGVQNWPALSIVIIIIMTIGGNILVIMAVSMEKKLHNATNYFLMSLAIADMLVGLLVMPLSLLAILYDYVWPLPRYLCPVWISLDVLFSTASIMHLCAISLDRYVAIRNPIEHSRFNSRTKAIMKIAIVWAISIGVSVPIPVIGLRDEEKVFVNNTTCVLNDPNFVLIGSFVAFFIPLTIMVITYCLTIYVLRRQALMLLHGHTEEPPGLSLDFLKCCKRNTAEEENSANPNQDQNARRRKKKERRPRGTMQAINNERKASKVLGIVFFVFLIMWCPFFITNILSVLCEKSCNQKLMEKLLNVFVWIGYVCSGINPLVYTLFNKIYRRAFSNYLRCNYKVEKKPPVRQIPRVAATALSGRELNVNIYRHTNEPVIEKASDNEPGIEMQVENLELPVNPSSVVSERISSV
Procedure, shortened: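 Receptor-bound radioligand counted after separation from unbound label once equilibrium is reached. Test compound added across a concentration range to tissue preparation plus radioligand; inhibition of binding reflects affinity and concentration.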

[3] = molecular target: T3, NET (norepinephrine transporter) (Rattus norvegicus, UniProt Q63380); experiment: In vitro determination of NET reuptake inhibition ([3H]Nixosetine binding, rat brain cortex); conditions: rat brain cortex; for IC50: read-out: NET pIC50 (converted)
T3 construct: Cortex from rat brain was collected and homogenised; from tissue; host or cells: rat brain cortex
Procedure, shortened: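 Competition curves and percentage specific binding came from scintillation counting of filter-trapped radioactivity. The membranes were rat cortical homogenate in pH 7.4 Tris buffer with 120 mM NaCl and 5 mM KCl. Test compounds competed with [3H]nisoxetine for binding.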

[4] = molecular target: T4, human cloned 5-HT2A receptor, expressed in L929 cells (Homo sapiens, UniProt P28223); experiment: In vitro binding affinity for 5-HT2A receptor ([125I]R91150 radioligand binding); conditions: human cloned 5-HT2A receptor in L929 cells, [125I]R91150; for IC50: read-out: 5-HT2A pIC50 (converted)
T4 construct: expressed in transfected cells; host or cells: L929 cells
Procedure, shortened: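 Competition radioligand binding to human cloned 5-HT2A receptor expressed in L929 cells, using [125I]R91150 with test compound at various concentrations. At equilibrium, receptor-bound radioactivity was separated from free and counted. Affinity reflects inhibition of radioligand binding.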

T3 sequence (Q63380 1-617): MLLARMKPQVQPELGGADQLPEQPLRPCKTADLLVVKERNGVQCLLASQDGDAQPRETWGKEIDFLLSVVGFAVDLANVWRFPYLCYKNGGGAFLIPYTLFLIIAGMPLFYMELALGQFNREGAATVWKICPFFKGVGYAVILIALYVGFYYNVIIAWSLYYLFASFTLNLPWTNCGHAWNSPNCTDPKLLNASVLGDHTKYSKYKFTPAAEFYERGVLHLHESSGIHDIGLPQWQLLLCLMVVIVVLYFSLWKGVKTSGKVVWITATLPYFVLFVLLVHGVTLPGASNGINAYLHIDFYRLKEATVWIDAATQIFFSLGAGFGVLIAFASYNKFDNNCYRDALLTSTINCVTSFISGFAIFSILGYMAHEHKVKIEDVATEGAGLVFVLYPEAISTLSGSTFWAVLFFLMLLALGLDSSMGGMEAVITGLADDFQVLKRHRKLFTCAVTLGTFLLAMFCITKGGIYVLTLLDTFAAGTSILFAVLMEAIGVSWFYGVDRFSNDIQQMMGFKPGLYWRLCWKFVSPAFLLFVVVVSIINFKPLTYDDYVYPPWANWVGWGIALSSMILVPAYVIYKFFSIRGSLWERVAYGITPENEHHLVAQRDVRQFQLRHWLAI
T4 sequence (P28223 whole entry): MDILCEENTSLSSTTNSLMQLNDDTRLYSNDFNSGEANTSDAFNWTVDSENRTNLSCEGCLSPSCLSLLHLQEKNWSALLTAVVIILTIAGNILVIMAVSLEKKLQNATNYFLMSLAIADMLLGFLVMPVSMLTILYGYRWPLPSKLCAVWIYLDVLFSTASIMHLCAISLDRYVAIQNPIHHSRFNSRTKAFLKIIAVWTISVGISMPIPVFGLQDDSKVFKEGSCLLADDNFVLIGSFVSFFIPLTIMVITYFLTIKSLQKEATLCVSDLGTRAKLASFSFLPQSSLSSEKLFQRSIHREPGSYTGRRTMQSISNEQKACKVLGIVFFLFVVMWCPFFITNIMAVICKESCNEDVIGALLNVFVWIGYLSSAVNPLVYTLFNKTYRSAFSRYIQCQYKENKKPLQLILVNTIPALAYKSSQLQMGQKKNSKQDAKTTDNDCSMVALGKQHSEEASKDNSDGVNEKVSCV
T1 sequence (P14416 whole entry): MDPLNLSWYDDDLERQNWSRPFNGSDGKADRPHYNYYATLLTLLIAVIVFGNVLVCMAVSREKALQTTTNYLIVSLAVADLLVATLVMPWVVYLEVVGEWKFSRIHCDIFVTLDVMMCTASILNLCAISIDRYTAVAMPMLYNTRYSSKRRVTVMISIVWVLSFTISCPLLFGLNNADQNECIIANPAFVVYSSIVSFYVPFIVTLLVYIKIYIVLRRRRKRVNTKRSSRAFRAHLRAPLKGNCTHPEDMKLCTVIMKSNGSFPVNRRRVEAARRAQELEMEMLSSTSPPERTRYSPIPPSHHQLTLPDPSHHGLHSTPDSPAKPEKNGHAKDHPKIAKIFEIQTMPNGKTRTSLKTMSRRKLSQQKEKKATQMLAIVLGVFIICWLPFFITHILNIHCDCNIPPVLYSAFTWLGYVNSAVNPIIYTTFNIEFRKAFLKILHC

## Cc1ccc(OC2CCN(CC3CC4c5ccccc5Cc5ccc(F)cc5C4O3)C2)cc1 (stereo not shown) [Compound 28]
[1]
  IC50: 7.59 nM
[2]
  IC50: 1.78 nM
[3]
  IC50: > 10000 nM
[4]
  IC50: 18.6 nM

## O=C(NCc1ccc(F)cc1)N1CCN(CC2CC3c4ccccc4Cc4ccc(F)cc4C3O2)CC1 (stereo not shown) [Compound 99]
[1]
  IC50: 11.5 nM
[2]
  IC50: 8.13 nM
[3]
  IC50: > 10000 nM
[4]
  IC50: 3.16 nM

## CCCCNC(=S)N1CCN(C[C@H]2C[C@@H]3c4ccccc4Cc4ccc(F)cc4[C@@H]3O2)CC1 [Compound 108]
[1]
  IC50: 29.5 nM
[2]
  IC50: 16.2 nM
[3]
  IC50: 3240 nM
[4]
  IC50: 4.57 nM

## O=C(OC1CCN(CC2CC3c4ccccc4Cc4ccc(F)cc4C3O2)C1)C1CC1 (mixture of isomers) [Compound 13]
[1]
  IC50: 3.47 nM
[2]
  IC50: 1.12 nM
[3]
  IC50: 5010 nM
[4]
  IC50: 0.912 nM

## COc1ccc(CNC(=O)N2CCN(CC3CC4c5ccccc5Cc5ccc(F)cc5C4O3)CC2)c(OC)c1 (stereo not shown) [Compound 96]
[1]
  IC50: 8.91 nM
[2]
  IC50: 6.76 nM
[3]
  IC50: > 10000 nM
[4]
  IC50: 16.2 nM

## CN(C)C1CCN(CC2CC3c4ccccc4Cc4ccc(F)cc4C3O2)C1 (mixture of isomers) [Compound 9]
[1]
  IC50: 9.12 nM
[2]
  IC50: 9.55 nM
[3]
  IC50: 4570 nM
[4]
  IC50: 9.12 nM

## O=C(O)C(=O)O.OC1CCN(CC2CC3c4ccccc4Oc4ccc(Br)cc4C3O2)CC1 (stereo not shown) [Compound 286]
[1]
  D2L pIC50: 7.50
[2]
  5-HT2C pIC50: 7.81
[3]
  NET pIC50: <5
[4]
  5-HT2A pIC50: 8.33

## CS(=O)(=O)N1CCN(CC2CC3c4ccccc4Cc4ccc(F)cc4C3O2)CC1 (stereo not shown) [Compound 102]
[1]
  IC50: 10.7 nM
[2]
  IC50: 12.6 nM
[3]
  IC50: > 10000 nM
[4]
  IC50: 4.68 nM

## Fc1ccc2c(c1)C1OC(CN3CCC(Oc4cccc(C(F)(F)F)c4)C3)CC1c1ccccc1C2 (mixture of isomers) [Compound 37]
[1]
  IC50: 32.4 nM
[2]
  IC50: 7.94 nM
[3]
  IC50: > 10000 nM
[4]
  IC50: 22.4 nM

## O=C(NCc1cccc(C(F)(F)F)c1)N1CCN(CC2CC3c4ccccc4Cc4ccc(F)cc4C3O2)CC1 (stereo not shown) [Compound 101]
[1]
  IC50: 17.4 nM
[2]
  IC50: 12 nM
[3]
  IC50: 8910 nM
[4]
  IC50: 5.75 nM

## N#Cc1cccc(OC2CCN(CC3CC4c5ccccc5Cc5ccc(F)cc5C4O3)C2)c1 (mixture of isomers) [Compound 29]
[1]
  IC50: 14.5 nM
[2]
  IC50: 3.39 nM
[3]
  IC50: 8510 nM
[4]
  IC50: 7.24 nM

## OCCC1CCN(C[C@H]2C[C@@H]3c4ccccc4Cc4ccc(F)cc4[C@@H]3O2)CC1 [Compound 154]
[1]
  IC50: 1.35 nM
[2]
  IC50: 1.62 nM
[3]
  IC50: > 10000 nM
[4]
  IC50: 0.912 nM

## COCCC1CN(C[C@H]2C[C@@H]3c4ccccc4Cc4ccc(F)cc4[C@@H]3O2)CCO1 (stereo partly shown) [Compound 130]
[1]
  IC50: 21.9 nM
[2]
  IC50: 5.37 nM
[3]
  IC50: 3550 nM
[4]
  IC50: < 10 nM

## O=C(NC1CC1)C1CCN(CC2CC3c4ccccc4Cc4ccc(F)cc4C3O2)CC1 (stereo not shown) [Compound 187]
[1]
  IC50: 18.2 nM
[2]
  IC50: 1.15 nM
[3]
  IC50: > 10000 nM
[4]
  IC50: 0.427 nM

## Fc1ccc2c(c1)C1OC(CN3CCN(Cc4cnc[nH]4)CC3)CC1c1ccccc1C2 (stereo not shown) [Compound 66]
[1]
  IC50: 13.8 nM
[2]
  IC50: 37.2 nM
[3]
  IC50: 4370 nM
[4]
  IC50: 7.41 nM

## Cc1ccc(C(=O)OC2CCN(CC3CC4c5ccccc5Cc5ccc(F)cc5C4O3)C2)cc1 (mixture of isomers) [Compound 15]
[1]
  IC50: 7.41 nM
[2]
  IC50: 6.31 nM
[3]
  IC50: 2090 nM
[4]
  IC50: 7.94 nM

## O=C(C1CCN(CC2CC3c4ccccc4Cc4ccc(F)cc4C3O2)CC1)N1CC=CC1 (stereo not shown) [Compound 201]
[1]
  IC50: 41.7 nM
[2]
  IC50: 10.5 nM
[3]
  IC50: > 10000 nM
[4]
  IC50: 0.617 nM

## Fc1ccc2c(c1)C1OC(CN3CCN(C(=S)Nc4ccccc4)CC3)CC1c1ccccc1C2 (stereo not shown) [Compound 115]
[1]
  IC50: 112 nM
[2]
  IC50: 22.4 nM
[3]
  IC50: 490 nM
[4]
  IC50: 7.41 nM

## CCS(=O)(=O)N1CCN(CC2CC3c4ccccc4Cc4ccc(F)cc4C3O2)CC1 (stereo not shown) [Compound 103]
[1]
  IC50: 19.5 nM
[2]
  IC50: 50.1 nM
[3]
  IC50: > 10000 nM
[4]
  IC50: 7.76 nM

## O=C(NC1CCCCC1)N1CCN(CC2CC3c4ccccc4Cc4ccc(F)cc4C3O2)CC1 (stereo not shown) [Compound 95]
[1]
  IC50: 69.2 nM
[2]
  IC50: 7.59 nM
[3]
  IC50: 9550 nM
[4]
  IC50: 1.74 nM

## CSc1nccc(N2CCN(CC3CC4c5ccccc5Cc5ccc(F)cc5C4O3)CC2)n1 (stereo not shown) [Compound 124]
[1]
  IC50: 47.9 nM
[2]
  IC50: 30.9 nM
[3]
  IC50: 2290 nM
[4]
  IC50: 8.91 nM

## OCC1CN(CC2CC3c4ccccc4Cc4ccc(F)cc4C3O2)CCO1 (mixture of isomers) [Compound 128, [2R-(2aα, 3aα, 12bβ)]-(3′RS)-[4-(11-fluoro-3,3a,8,12b-tetrahydro-2H-1-oxa-dibenzo[e,h]azulen-2-ylmethyl)-morpholin-2-yl]-methanol.oxalate (1:1)]
[1]
  IC50: 18.6 nM
[2]
  IC50: 11.7 nM
[3]
  IC50: 2630 nM
[4]
  IC50: 4.37 nM

## COCC1CCCN1CC1CC2c3ccccc3Cc3ccc(F)cc3C2O1 (mixture of isomers) [Compound 38]
[1]
  IC50: 224 nM
[2]
  IC50: 15.5 nM
[3]
  IC50: 5130 nM
[4]
  IC50: 13.5 nM

## CC(=O)C1(c2ccccc2)CCN(C[C@H]2C[C@@H]3c4ccccc4Cc4ccc(F)cc4[C@@H]3O2)CC1.O=C(O)C(=O)O [Compound 273]
[1]
  D2L pIC50: 7.71
[2]
  5-HT2C pIC50: 8.24
[3]
  NET pIC50: <5
[4]
  5-HT2A pIC50: 8.48

## COC(=O)C(Cc1ccc(Cl)cc1)NC(=O)C1CCN(CC2CC3c4ccccc4Cc4ccc(F)cc4C3O2)CC1 (mixture of isomers) [Compound 184]
[1]
  IC50: 25.1 nM
[2]
  IC50: 5.75 nM
[3]
  IC50: 3890 nM
[4]
  IC50: 1.41 nM

## O=C(O)C(=O)O.OC1CCN(CC2CC3c4ccccc4Oc4ccc(Cl)cc4C3O2)CC1 (stereo not shown) [Compound 285]
[1]
  D2L pIC50: 7.49
[2]
  5-HT2C pIC50: 7.76
[3]
  NET pIC50: <5
[4]
  5-HT2A pIC50: 8.56

## N#CC1CCCN(C[C@H]2C[C@@H]3c4ccccc4Cc4ccc(F)cc4[C@@H]3O2)CC1.O=C(O)C(=O)O.O=C(O)C(=O)O (mixture of isomers) [Compound 268]
[1]
  D2L pIC50: 7.92
[2]
  5-HT2C pIC50: 8.24
[3]
  NET pIC50: <5
[4]
  5-HT2A pIC50: 8.52

## Fc1ccc2c(c1)C1OC(CN3CCN(c4cnccn4)CC3)CC1c1ccccc1C2 (stereo not shown) [Compound 123]
[1]
  IC50: 40.7 nM
[2]
  IC50: 7.24 nM
[3]
  IC50: 2820 nM
[4]
  IC50: 2.75 nM

## CN(C)C(=O)CC1CN(C[C@H]2C[C@@H]3c4ccccc4Cc4ccc(F)cc4[C@@H]3O2)CCO1 (stereo partly shown) [Compound 136]
[1]
  IC50: 24.5 nM
[2]
  IC50: 3.31 nM
[3]
  IC50: 70.8 nM
[4]
  IC50: 1.58 nM

## Fc1cccc(OCC2CCN(CC3CC4c5ccccc5Cc5ccc(F)cc5C4O3)C2)c1 (stereo not shown) [Compound 27]
[1]
  IC50: 3.89 nM
[2]
  IC50: 4.27 nM
[3]
  IC50: 5010 nM
[4]
  IC50: 8.71 nM

## CCOC(=O)C=C1CCN(CC2CC3c4ccccc4Cc4ccc(F)cc4C3O2)CC1 (stereo not shown) [Compound 165]
[1]
  IC50: 38.9 nM
[2]
  IC50: 27.5 nM
[3]
  IC50: 3630 nM
[4]
  IC50: 10.7 nM

## Fc1ccc2c(c1)[C@@H]1O[C@@H](CN3CCc4ccccc4C3)C[C@@H]1c1ccccc1C2.O=C(O)C(F)(F)F [Compound 275]
[1]
  D2L pIC50: 8.03
[2]
  5-HT2C pIC50: 8.66
[3]
  NET pIC50: 5.49
[4]
  5-HT2A pIC50: 8.52

## C=CC1(O)CCN(CC2CC3c4ccccc4Cc4ccc(F)cc4C3O2)C1 (stereo not shown) [Compound 40]
[1]
  IC50: 4.47 nM
[2]
  IC50: 0.275 nM
[3]
  IC50: > 10000 nM
[4]
  IC50: 1.23 nM

## OCCCC1CCN(CC2CC3c4ccccc4Cc4ccc(F)cc4C3O2)CC1 (stereo not drawn) [Compound 155, [2R-(2α, 3aα, 12bβ)]3-[1-(11-fluoro-3,3a,8,12b-tetrahydro-2H-1-oxa-dibenzo[e,h]-azulen-2-ylmethyl)-piperidin-4-yl]-propan-1-ol.oxalate (1:1)]
[1]
  IC50: 1.48 nM
[2]
  IC50: 2.88 nM
[3]
  IC50: 1860 nM
[4]
  IC50: 1.51 nM
